Patent US4354039A, “Chlorocitric acids” (Hoffmann-La Roche Inc., priority 1981, dated 1982)
Like-named read-outs stand apart in the source and are kept apart here.

Legend:
[1] = Effect of stereoisomers on food consumption of meal-fed rats (Example 14); format: in vivo, Charles River female rats
Protocol: Animals were fasted 48 hr, then meal-fed the 70% glucose diet described by A. C. […] Following 5 to 12 days alimentation on the meal-feeding regimen, rats were dosed with the appropriate compounds orally by intubation 1/2 hr before the 3 hr meal. Food cups were weighed immediately after the meal. The control group consisted of 5 to 10 rats, while the experimental group consisted of 4 to 6 rats.

[2] = Effect on stomach emptying, [14C] glucose load (Example 25); format: in vivo, Rats; settings: 0.33 mmoles/kg oral, 60 min after [14C] glucose load
Protocol: Rats were trained to consume a 3 hr 70% glucose meal from 8 a.m. to 11 a.m. daily. On the experimental day, compounds were administered orally by intubation 30 min before a [^14 C] glucose load was given also by intubation. […] Sixty minutes later the rats were killed by decapitation; blood and stomachs were collected on ice.
Data are expressed as follows: dpm×10^3 per ml of serum and dpm×10^3 per stomach.

[3] = Anorectic activities of stereoisomers, 3-day food consumption and body weight gain (Example 16); format: in vivo, Charles River female rats; settings: 1.32 mmoles/kg oral, 3 days
Protocol: Charles River female rats (Charles River Breeding Laboratories, Wilmington, Mass.), weighing 196 to 210 g, were individually housed in wire-bottomed cages in a temperature-regulated (22° C.) light-controlled room (12 hr light, 6 a.m. to 6 p.m. and 12 hr dark, 6 p.m. to 6 a.m.). Animals were fasted 48 hr, then meal-fed a 70% glucose diet from 8 to 11 a.m. Following 5 to 12 days alimentation on the meal-feeding regimen, rats were dosed with the appropriate compounds orally by intubation 1/2 hr before the 3 hr meal for 3 days. The total food consumption and body weight gained during the 3 day period were determined. The control group consisted of 16 rats, while the experimental group consists of 8 rats.

[4] = Food intake in dogs, pyramiding oral doses (Examples 26 and 27); format: in vivo, beagle dogs
Protocol: Twelve beagle dogs of both sexes weighing 7.6-12.2 kg were used for this test. The test compounds were contained in gelatin capsules for oral administration to two dogs of each sex. The animals were weighed and food consumption calculated daily excluding weekends throughout the test period. Each animal received 800 grams of diet daily consisting of 400 grams of Wayne pellet dog food mixed with 400 ml distilled water. The animals received pyramiding oral doses of the test compound over the three week period. On Monday and Tuesday of the first week the animals were weighed and food consumption was recorded (control). […] Doses of 30, 100 and 300 mg/kg were administered on Monday, Wednesday and Friday respectively during the second week. A final dose of 1000 mg/kg was administered on Monday of the third week.
Food intake was determined by the procedure at pyramiding doses described in EXAMPLE 26.

isolated rat hepatocytes = experiment: Fatty acid and cholesterol synthesis and CO2 production in isolated hepatocytes (Example 23); format: cell-based, Female Charles River rats; settings: 2 mM, 60 min, 37° C.; for activity at 2000 µM: Rattus norvegicus, Hepatocyte, 1 h
Protocol: Female Charles River rats were fasted 48 hr, then meal-fed a 1% corn oil, 70% glucose diet for 7 to 14 days from 8 to 11 a.m. The isolated rat hepatocytes were prepared by perfusing the liver in situ. The hepatocytes were incubated in an oscillating water bath at 37° C. for 60 min. […] All incubations were done in triplicate and all experiments were repeated at least twice. […] The contents of the center well were transferred to scintillation counting fluid and ^14 CO2 content was determined. […] The media was then acidified, extracted with hexane, and the extract counted (to determine the rate of lipogenesis). The conversion of ^3 H2 O and [^14 C]alanine into fatty acids or sterols was determined in a PDS/3, Mark II liquid scintillation counting system.

[5] = test day 8, dose 100 mg/kg oral
[6] = test day 10, dose 300 mg/kg oral
[7] = test day 13, dose 1000 mg/kg oral

Structure (SMILES): O=C(O)C[C@@](O)(C(=O)O)[C@H](Cl)C(=O)O [(+)-erythro-Chlorocitric acid]
- Food Consumption, % of control ([1]; 0.66 mmoles/kg oral): 99 % of control
- Food Consumption, % of control ([1]; 2.63 mmoles/kg oral): 78 % of control
- Serum, % of control [2]: 88 % of control
- Stomach Contents, % of control [2]: 207 % of control
- 3-Day Body Weight Gain, % of initial body weight [3]: -0.7 % of initial body weight
- 3-Day Food Consumption, % of control [3]: 111 % of control

Structure (SMILES): O=C(O)C[C@](O)(C(=O)O)[C@H](Cl)C(=O)O [(+)-threo-Chlorocitric acid]
- Food Consumption ([4]; test day 1, dose 3 mg/kg oral): 430 ± 109 g
- Food Consumption, % of control ([4]; test day 1, dose 3 mg/kg oral): 70 % of control
- Food Consumption ([4]; test day 2, no dose): 502 ± 109 g
- Food Consumption, % of control ([4]; test day 2, no dose): 82 % of control
- Food Consumption ([4]; test day 3, dose 10 mg/kg oral): 367 ± 114 g
- Food Consumption, % of control ([4]; test day 3, dose 10 mg/kg oral): 60 % of control
- Food Consumption ([4]; test day 6, dose 30 mg/kg oral): 629 ± 64 g
- Food Consumption, % of control ([4]; test day 6, dose 30 mg/kg oral): 103 % of control
- Food Consumption ([4]; test day 7, no dose): 397 ± 87 g
- Food Consumption, % of control ([4]; test day 7, no dose): 65 % of control
- Food Consumption [4, 5]: 477 ± 75 g
- Food Consumption, % of control [4, 5]: 78 % of control
- Food Consumption ([4]; test day 9, no dose): 585 ± 69 g
- Food Consumption, % of control ([4]; test day 9, no dose): 96 % of control
- Food Consumption [4, 6]: 436 ± 60 g
- Food Consumption, % of control [4, 6]: 71 % of control
- Food Consumption [4, 7]: 433 ± 125 g
- Food Consumption, % of control [4, 7]: 71 % of control
- Food Consumption ([4]; test day 14, no dose): 518 ± 19 g
- Food Consumption, % of control ([4]; test day 14, no dose): 85 % of control
- Food Consumption ([4]; test day 15, no dose): 622 ± 69 g
- Food Consumption, % of control ([4]; test day 15, no dose): 102 % of control
- Food Consumption ([4]; test day 16, no dose): 564 ± 106 g
- Food Consumption, % of control ([4]; test day 16, no dose): 92 % of control
- Food Consumption ([4]; test day 17, no dose): 597 ± 36 g
- Food Consumption, % of control ([4]; test day 17, no dose): 98 % of control
- Food Consumption ([4]; test day 21, no dose): 578 ± 79 g
- Food Consumption, % of control ([4]; test day 21, no dose): 95 % of control
- Food Consumption ([4]; test day 22, no dose): 668 ± 57 g
- Food Consumption, % of control ([4]; test day 22, no dose): 110 % of control
- Food Consumption ([4]; test day 23, no dose): 516 ± 66 g
- Food Consumption, % of control ([4]; test day 23, no dose): 85 % of control
- Food Consumption ([4]; test day 24, no dose): 539 ± 39 g
- Food Consumption, % of control ([4]; test day 24, no dose): 88 % of control
- Food Consumption ([4]; test day 27, no dose): 479 ± 92 g
- Food Consumption, % of control ([4]; test day 27, no dose): 79 % of control
- Food Consumption ([4]; test day 28, no dose): 710 ± 91 g
- Food Consumption, % of control ([4]; test day 28, no dose): 116 % of control
- CO2 Production, [14C]alanine converted (isolated rat hepatocytes; 2000 µM): 100 % of control
- Cholesterol Synthesis, [14C]alanine converted (isolated rat hepatocytes; 2000 µM): 88 % of control
- Fatty Acid Synthesis, 3H2O converted (isolated rat hepatocytes; 2000 µM): 94 % of control
- Fatty Acid Synthesis, [14C]alanine converted (isolated rat hepatocytes; 2000 µM): 97 % of control
- activity at 2000 µM (isolated rat hepatocytes; read-out: CO2 Production, [14C]alanine converted): 114%
- activity at 2000 µM (isolated rat hepatocytes; read-out: Cholesterol Synthesis, [14C]alanine converted): 69%
- activity at 2000 µM (isolated rat hepatocytes; read-out: Fatty Acid Synthesis, 3H2O converted): 93%
- activity at 2000 µM (isolated rat hepatocytes; read-out: Fatty Acid Synthesis, [14C]alanine converted): 102%
- Food Consumption, % of control ([1]; 0.66 mmoles/kg oral): 83 % of control
- Food Consumption, % of control ([1]; 2.63 mmoles/kg oral): 38 % of control
- Serum, % of control [2]: 60 % of control
- Stomach Contents, % of control [2]: 220 % of control
- 3-Day Body Weight Gain, % of initial body weight [3]: -1.7 % of initial body weight
- 3-Day Food Consumption, % of control [3]: 93 % of control

Structure (SMILES): O=C(O)C[C@](O)(C(=O)O)[C@@H](Cl)C(=O)O [(-)-erythro-Chlorocitric acid]
- Food Consumption, % of control ([1]; 0.66 mmoles/kg oral): 85 % of control
- Food Consumption, % of control ([1]; 2.63 mmoles/kg oral): 53 % of control
- Serum, % of control [2]: 90 % of control
- Stomach Contents, % of control [2]: 169 % of control
- 3-Day Body Weight Gain, % of initial body weight [3]: -2.4 % of initial body weight
- 3-Day Food Consumption, % of control [3]: 86 % of control
